Series [1] concerns MCF7. Nature of the series: Mammosphere formation assay (3D-mammosphere assay). The series is classed as cell-based, human. The settings on record: for inhibition of MCF7 cells in the mammosphere assay compared to parent compound: concentrations from 1 μM to 100 μM; for SI (mammosphere/monolayer MCF7): mammosphere selectivity index, ratio between IC50 values in the 3D and 2D assays against MCF7. The source says: As used in the tables, “IC50 (MCF7 mammosphere)” refers to the half maximal inhibitory concentration in the 3D-mammosphere assay, using the ER+ breast cancer cell line, MCF7. The term “IC50 (MCF7 monolayer)” refers to the half maximal inhibitory concentration in the 2D-cell viability assay, using the ER+ breast cancer cell line, MCF7. The term “IC50 (BJ1 monolayer)” refers to the half maximal inhibitory concentration in the 2D-cell viability assay, using the immortalized non-tumoral fibroblast cell line, hTERT-BJ1. The term “SI (mammosphere/monolayer MCF7)” refers to the mammosphere selectivity index, a ratio between IC50 values comparing the biological activity in the 3D and 2D assays against MCF7. The term “SI (BJ1/MCF7 monolayer)” refers to the cancer selectivity index, a ratio between IC50 values comparing the biological activity in the cell viability assays against MCF7 and hTERT-BJ1.
FIGS. 1-3 are dose-response curves for various compounds described herein, using the mammosphere assay. The assay was performed using the MCF7 cell line. The curves are plotted as a mean of two independent experiments, and the standard deviation for each point is represented by vertical bars. The inhibition percentage is shown as a function of the log of the concentration (μM). […] Similar effects are expected for compounds having the general formula [1D].
With respect to cell culture and reagents, the human breast adenocarcinoma cell line (MCF-7) was from the American Type Culture Collection (ATCC). hTERT-BJ1 cells were from Clontech, Inc. MCF-7 and hTERT-BJ1 cells were grown in DMEM supplemented with 10% fetal bovine serum, GlutaMAX and 1% penicillin-streptomycin and incubated at 37C in a humidified 5% CO2 incubator. The medium was changed 2-3 times/week.
Mammosphere formation assay: A single cell suspension was prepared using enzymatic (lx Trypsin-EDTA, Sigma Aldrich, cat. #T3924), and manual disaggregation (25 gauge needle). Five thousand cells were plated with in mammosphere medium (DMEM-F12/B27/20 ng/ml EGF/PenStrep), under non-adherent conditions, in six wells plates coated with 2-hydroxyethylmethacrylate (poly-HEMA, Sigma, cat. #P3932). Cells were grown for 5 days and maintained in a humidified incubator at 37° C. at an atmospheric pressure in 5% (v/v) carbon dioxide/air. After 5 days, 3D spheroids with a diameter greater than 50 μm were counted using a microscope, fitted with a graticule eye-piece, and the percentage of cells which formed spheroids was calculated and normalized to one (1=100% MFE; mammosphere forming efficiency). Mammosphere assays were performed in triplicate and repeated three times independently.

For series [2], the system named is MCF7. In words: Hoechst-based 2D-cell viability assay, MCF7 monolayer. Also on record: species or system human. An excerpt: As used in the tables, “IC50 (MCF7 mammosphere)” refers to the half maximal inhibitory concentration in the 3D-mammosphere assay, using the ER+ breast cancer cell line, MCF7. The term “IC50 (MCF7 monolayer)” refers to the half maximal inhibitory concentration in the 2D-cell viability assay, using the ER+ breast cancer cell line, MCF7. The term “IC50 (BJ1 monolayer)” refers to the half maximal inhibitory concentration in the 2D-cell viability assay, using the immortalized non-tumoral fibroblast cell line, hTERT-BJ1. The term “SI (mammosphere/monolayer MCF7)” refers to the mammosphere selectivity index, a ratio between IC50 values comparing the biological activity in the 3D and 2D assays against MCF7. The term “SI (BJ1/MCF7 monolayer)” refers to the cancer selectivity index, a ratio between IC50 values comparing the biological activity in the cell viability assays against MCF7 and hTERT-BJ1. […] Cell viability was assessed using Hoechst 33342, a nuclear dye that stains DNA in live cells. The viability of normal human fibroblasts (hTERT-BJ1) treated with the compounds described herein was also assessed in parallel. Quantitation was performed with a plate-reader.

The next series deals with hTERT-BJ1. In words: Hoechst-based 2D-cell viability assay, hTERT-BJ1 monolayer. The settings on record: for toxicity in the non-tumoral cell line hTERT-BJ1: up to the concentration of 90 μM. Also on record: species or system human. An excerpt:
As used in the tables, “IC50 (MCF7 mammosphere)” refers to the half maximal inhibitory concentration in the 3D-mammosphere assay, using the ER+ breast cancer cell line, MCF7. The term “IC50 (MCF7 monolayer)” refers to the half maximal inhibitory concentration in the 2D-cell viability assay, using the ER+ breast cancer cell line, MCF7. The term “IC50 (BJ1 monolayer)” refers to the half maximal inhibitory concentration in the 2D-cell viability assay, using the immortalized non-tumoral fibroblast cell line, hTERT-BJ1. The term “SI (mammosphere/monolayer MCF7)” refers to the mammosphere selectivity index, a ratio between IC50 values comparing the biological activity in the 3D and 2D assays against MCF7. The term “SI (BJ1/MCF7 monolayer)” refers to the cancer selectivity index, a ratio between IC50 values comparing the biological activity in the cell viability assays against MCF7 and hTERT-BJ1. With respect to cell culture and reagents, the human breast adenocarcinoma cell line (MCF-7) was from the American Type Culture Collection (ATCC). hTERT-BJ1 cells were from Clontech, Inc. MCF-7 and hTERT-BJ1 cells were grown in DMEM supplemented with 10% fetal bovine serum, GlutaMAX and 1% penicillin-streptomycin and incubated at 37C in a humidified 5% CO2 incubator. The medium was changed 2-3 times/week. A Hoechst-based viability assay was used to characterize the selectivity of compounds according to the present approach, for the preferential targeting of cancer cells. Briefly, MCF7 cell monolayers were treated with a compound at concentrations ranging from 1 μM to 100 μM, for a period of one day. Cell viability was assessed using Hoechst 33342, a nuclear dye that stains DNA in live cells. The viability of normal human fibroblasts (hTERT-BJ1) treated with the compounds described herein was also assessed in parallel. Quantitation was performed with a plate-reader.

The term IC50 denotes the concentration needed to halve the response being measured.

Take `CCCCCCCCCCCCCC(=O)N1CCN(c2ccc(Nc3ncc4c(C)c(C(C)=O)c(=O)n(C5CCCC5)c4n3)nc2)CC1` [Compound [2C], 6-acetyl-8-cyclopentyl-5-methyl-2-[[5-(4-tetradecanoylpiperazin-1-yl)-2-pyridyl]amino]pyrido[2,3-d]pyrimidin-7-one]: in the series on MCF7 [1], the “inhibition of MCF7 cells in the mammosphere assay compared to parent compound” value is listed as “remarkably improved inhibition”. Moreover, the “toxicity in the 2D-cell viability assay” value with MCF7 [2] (MCF7 monolayer, up to a concentration of 30 μM) is reported as “non-toxic”. Besides, the “toxicity in the non-tumoral cell line hTERT-BJ1” value with hTERT-BJ1 is “non-toxic”.
In the case of `CC(=O)c1c(C)c2cnc(Nc3ccc(N4CCNCC4)cn3)nc2n(C2CCCC2)c1=O` [Palbociclib, 6-acetyl-8-cyclopentyl-5-methyl-2-(5-piperazin-1-yl-pyridin-2-ylamino)-8H-pyrido[2,3-d]pyrimidin-7-one, reference compound], the “SI (mammosphere/monolayer MCF7)” value in the series on MCF7 [1] was “non-selective”. For the same compound, in the series with hTERT-BJ1, the “toxicity in the non-tumoral cell line hTERT-BJ1” value is “non-toxic”.
In the case of `CCCCCCCCCCCCCC(=O)N1CCN(c2ccc(Nc3ncc4cc(C(=O)N(C)C)n(C5CCCC5)c4n3)nc2)CC1` [Compound [1C], 7-cyclopentyl-N,N-dimethyl-2-[[5-(4-tetradecanoylpiperazin-1-yl)-2-pyridyl]amino]pyrrolo[2,3-d]pyrimidine-6-carboxamide], the “improvement in potency in the 3D-mammosphere assay compared to the parent compound” value in the series on MCF7 [1] (IC50 ratio vs. Ribociclib) is given as 7 fold. Also, the “inhibition of MCF7 cells in the mammosphere assay compared to parent compound” value in the series on MCF7 [1] is reported as “remarkably improved inhibition”. The “potency against MCF7 cells compared to parent compound (dose-response curves, FIG. 4)” value in the series on MCF7 [2] (Hoechst staining assay, MCF7, each concentration) is “more potent”. Further, the “toxicity in the non-tumoral cell line hTERT-BJ1” value in the series with hTERT-BJ1 is reported as “non-toxic”.
Take `CN(C)C(=O)c1cc2cnc(Nc3ccc(N4CCNCC4)cn3)nc2n1C1CCCC1` [Ribociclib, 7-cyclopentyl-N,N-dimethyl-2-[(5-piperazin-1-ylpyridin-2-yl)amino]pyrrolo[2,3-d]pyrimidine-6-carboxamide]: in the series with hTERT-BJ1 (Hoechst staining assay, hTERT-BJ1), the “potency on hTERT-BJ1 compared to Compound [1C] (dose-response curves, FIG. 7)” value is “more potent at most concentrations tested”. The “toxicity in the non-tumoral cell line hTERT-BJ1” value with hTERT-BJ1 was “non-toxic”.
For the compound `CCN1CCN(Cc2ccc(Nc3ncc(F)c(-c4cc(F)c5nc(C)n(C(C)C)c5c4)n3)nc2)CC1` [Abemaciclib, N-[5-[(4-ethylpiperazin-1-yl)methyl]pyridin-2-yl]-5-fluoro-4-(7-fluoro-2-methyl-3-propan-2-ylbenzimidazol-5-yl)pyrimidin-2-amine, reference compound], the “SI (mammosphere/monolayer MCF7)” value in the series on MCF7 [1] is more than 250. This compound yielded an IC50 with hTERT-BJ1 (Homo sapiens, Table 3, unit inferred, 2D-cell viability assay, hTERT-BJ1) of 30 ± 6 µM.

These data come from patent publication US12358920B2, “Substituted pyrrolo[2,3-d]pyrimidines as selective CDK 4/6 inhibitors” (LUNELLA BIOTECH, INC., priority 2019, dated 2025).
